Measurements taken from US12098145B2 (Libra Therapeutics, Inc., priority 2022, dated 2024).

Columns and labels:
TFEB = TFEB translocation assay (TFEB reporter in U2OS cells, imaging); format: cell-based; conditions: Homo sapiens; U2OS cell line with TFEB reporter, 2 hours incubation, nucleus to cytoplasm ratio, normalized to Torin-1; read-out: TFEB Translocation pEC50 (converted)
Procedure, shortened: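 U2OS cells stably expressing mRFP-fused TFEB reporter, switched to Opti-MEM then treated 2 h at 37 °C with compounds (0.5% DMSO, 0.015% Tween 80). Hoechst-stained, PFA-fixed cells imaged at 20×; nucleus/cytoplasm intensity ratio per well normalized to Torin-1 (100%) and DMSO (0%).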

TRPML1 = target: T1, TRPML1 (Homo sapiens, UniProt Q9GZU1); assay: Cellular TRPML1 assay (FLIPR, GCaMP6f calcium read-out); format: cell-based; conditions: HEKT-REx/GCaMP6f/TRPML1 cells, FLIPR TETRA, kinetic response over 300 seconds; read-out: TRPML1 FLIPR pEC50 (converted)
T1 construct: expressed in transfected cells; host or cells: HEK T-REx cells stably expressing GCaMP6f and TRPML1
T1 sequence (Q9GZU1 whole entry): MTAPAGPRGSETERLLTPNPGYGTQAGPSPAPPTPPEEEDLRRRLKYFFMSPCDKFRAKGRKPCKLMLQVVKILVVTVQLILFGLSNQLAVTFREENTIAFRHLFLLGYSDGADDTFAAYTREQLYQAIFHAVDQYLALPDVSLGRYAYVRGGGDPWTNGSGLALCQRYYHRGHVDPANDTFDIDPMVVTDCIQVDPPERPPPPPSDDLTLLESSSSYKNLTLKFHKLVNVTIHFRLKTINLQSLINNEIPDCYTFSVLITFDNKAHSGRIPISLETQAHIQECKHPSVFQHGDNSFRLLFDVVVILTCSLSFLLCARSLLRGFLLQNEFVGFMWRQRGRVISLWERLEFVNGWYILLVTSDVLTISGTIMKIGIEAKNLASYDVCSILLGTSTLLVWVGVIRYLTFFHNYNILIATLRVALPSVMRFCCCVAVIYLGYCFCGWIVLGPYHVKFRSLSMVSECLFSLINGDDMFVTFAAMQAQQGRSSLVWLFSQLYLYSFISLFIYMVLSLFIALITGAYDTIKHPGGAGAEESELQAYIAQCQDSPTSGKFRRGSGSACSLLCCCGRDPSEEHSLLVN
Procedure, shortened: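 HEK T-REx cells stably expressing TRPML1 and GCaMP6f, seeded 24 h before in Optimem + 0.5% FBS. After ~10 min pre-incubation at room temperature, compounds in Ca2+-free Tyrode's buffer were injected on FLIPR Tetra (final DMSO 0.5%). Calcium fluorescence kinetics followed for 300 s.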

Row | EC50 (TRPML1) [nM] | SMILES | EC50 (TFEB) [nM]
1 | 10 to 1000 | O=C(Nc1cc(F)c(O[C@@H]2C[C@@H]3C[C@@H]3C2)c(F)c1)c1nc(N2CCC3COCC32)oc1CC(F)(F)F (stereo partly drawn) [Example 144, N-(4-(cis-bicyclo[3.1.0]hexan-3-yloxy)-3,5-difluorophenyl)-2-(hexahydro-1H-furo[3,4-b]pyrrol-1-yl)-5-(2,2,2-trifluoroethyl)oxazole-4-carboxamide] | 10 to 1000
2 | 10 to 1000 | CCC1(CC)CN(c2nc(C(=O)Nc3cc(F)c(OC4CC5CC(C5)C4)c(F)c3)c(CC(F)(F)F)o2)C1 (stereo not drawn) [Example 145, N-(4-(bicyclo[3.1.1]heptan-3-yloxy)-3,5-difluorophenyl)-2-(3,3-diethylazetidin-1-yl)-5-(2,2,2-trifluoroethyl)oxazole-4-carboxamide] | 10 to 1000
3 | 10 to 1000 | CCC1(OC)CN(c2nc(C(=O)Nc3cc(F)c(OC4CC5CC(C5)C4)c(F)c3)c(CC(F)(F)F)o2)C1 (stereo not drawn) [Example 148, N-(4-(bicyclo[3.1.1]heptan-3-yloxy)-3,5-difluorophenyl)-2-(3-ethyl-3-methoxyazetidin-1-yl)-5-(2,2,2-trifluoroethyl)oxazole-4-carboxamide] | 10 to 1000
4 | 10 to 1000 | CCC1(OC)CN(c2nc(C(=O)Nc3ccc(OC4CC5CC(C5)C4)c(F)c3)c(CC(F)(F)F)o2)C1 (stereo not drawn) [Example 149, N-(4-(bicyclo[3.1.1]heptan-3-yloxy)-3-fluorophenyl)-2-(3-ethyl-3-methoxyazetidin-1-yl)-5-(2,2,2-trifluoroethyl)oxazole-4-carboxamide] | 10 to 1000
5 | 10 to 1000 | CCC1(OC)CN(c2nc(C(=O)Nc3cc(F)c(OC4CC5CCC4C5)c(F)c3)c(CC(F)(F)F)o2)C1 (stereo not drawn) [Example 150, N-(4-(bicyclo[2.2.1]heptan-2-yloxy)-3,5-difluorophenyl)-2-(3-ethyl-3-methoxyazetidin-1-yl)-5-(2,2,2-trifluoroethyl)oxazole-4-carboxamide] | 10 to 1000
6 | 10 to 1000 | O=C(Nc1ccc(O[C@@H]2CC3C[C@@H]3C2)c(F)c1)c1nc(N2CCC3CC32)oc1CC(F)(F)F (stereo partly drawn) [Example 154, 2-(2-azabicyclo[3.1.0]hexan-2-yl)-N-(4-(cis-bicyclo[3.1.0]hexan-3-yloxy)-3-fluorophenyl)-5-(2,2,2-trifluoroethyl)oxazole-4-carboxamide] | 10 to 1000
7 | 10 to 1000 | CCC1(CC)CN(c2nc(C(=O)Nc3cc(F)c(OC4CCC5CC54)c(F)c3)c(CC(F)(F)F)o2)C1 (stereo not drawn) [Example 155, N-(4-(bicyclo[3.1.0]hexan-2-yloxy)-3,5-difluorophenyl)-2-(3,3-diethylazetidin-1-yl)-5-(2,2,2-trifluoroethyl)oxazole-4-carboxamide] | 10 to 1000
8 | 10 to 1000 | O=C(Nc1ccc(O[C@@H]2C[C@@H]3C[C@@H]3C2)c(F)c1)c1nc(N2CC3CC3C2)oc1CC(F)(F)F (stereo partly drawn) [Example 156, 2-(3-azabicyclo[3.1.0]hexan-3-yl)-N-(4-(cis-bicyclo[3.1.0]hexan-3-yloxy)-3-fluorophenyl)-5-(2,2,2-trifluoroethyl)oxazole-4-carboxamide] | 10 to 1000
9 | 10 to 1000 | O=C(Nc1cc(F)c(O[C@@H]2C[C@@H]3C[C@@H]3C2)c(F)c1)c1nc(N2CCC3OCCC32)oc1CC(F)(F)F (stereo partly drawn) [Example 157, N-(4-(cis-bicyclo[3.1.0]hexan-3-yloxy)-3,5-difluorophenyl)-2-(hexahydro-4H-furo[3,2-b]pyrrol-4-yl)-5-(2,2,2-trifluoroethyl)oxazole-4-carboxamide] | 10 to 1000
10 | 10 to 1000 | CCC1(OC)CN(c2nc(C(=O)Nc3ccc(O[C@@H]4C[C@@H]5C[C@@H]5C4)c(F)c3)c(CC(F)(F)F)o2)C1 [Example 159, N-(4-(cis-bicyclo[3.1.0]hexan-3-yloxy)-3-fluorophenyl)-2-(3-ethyl-3-methoxyazetidin-1-yl)-5-(2,2,2-trifluoroethyl)oxazole-4-carboxamide] | 10 to 1000
11 | 10 to 1000 | O=C(Nc1ccc(O[C@@H]2C[C@@H]3C[C@@H]3C2)c(F)c1)c1nc(N2CC3CCC3C2)oc1CC(F)(F)F (stereo partly drawn) [Example 161, N-(4-(cis-bicyclo[3.1.0]hexan-3-yloxy)-3-fluorophenyl)-2-(3-azabicyclo[3.2.0]heptan-3-yl)-5-(2,2,2-trifluoroethyl)oxazole-4-carboxamide] | 10 to 1000
12 | 10 to 1000 | O=C(Nc1ccc(O[C@@H]2C[C@@H]3C[C@@H]3C2)c(F)c1)c1nc(N2CCC3CCCC32)oc1CC(F)(F)F (stereo partly drawn) [Example 162, N-(4-(cis-bicyclo[3.1.0]hexan-3-yloxy)-3-fluorophenyl)-2-(hexahydrocyclopenta[b]pyrrol-1(2H)-yl)-5-(2,2,2-trifluoroethyl)oxazole-4-carboxamide] | 10 to 1000
13 | 10 to 1000 | O=C(Nc1cc(F)c(O[C@@H]2C[C@@H]3C[C@@H]3C2)c(F)c1)c1nc(N2CCC3CCCCC32)oc1CC(F)(F)F (stereo partly drawn) [Example 163, N-(4-(cis-bicyclo[3.1.0]hexan-3-yloxy)-3,5-difluorophenyl)-2-(octahydro-1H-indol-1-yl)-5-(2,2,2-trifluoroethyl)oxazole-4-carboxamide] | 10 to 1000
14 | 10 to 1000 | COC1(C)CN(c2nc(C(=O)Nc3cc(C)c(O[C@@H]4C[C@@H]5C[C@@H]5C4)c(F)c3)c(CC(F)(F)F)o2)C1 [Example 164, N-(4-(cis-bicyclo[3.1.0]hexan-3-yloxy)-3-fluoro-5-methylphenyl)-2-(3-methoxy-3-methylazetidin-1-yl)-5-(2,2,2-trifluoroethyl)oxazole-4-carboxamide] | 10 to 1000
15 | 10 to 1000 | CCC1(COC)CN(c2nc(C(=O)Nc3cc(F)c(O[C@@H]4C[C@@H]5C[C@@H]5C4)c(F)c3)c(CC(F)(F)F)o2)C1 [Example 165, N-(4-(cis-bicyclo[3.1.0]hexan-3-yloxy)-3,5-difluorophenyl)-2-(3-ethyl-3-(methoxymethyl)azetidin-1-yl)-5-(2,2,2-trifluoroethyl)oxazole-4-carboxamide] | 10 to 1000
16 | 10 to 1000 | O=C(Nc1cc(F)c(O[C@@H]2C[C@@H]3C[C@@H]3C2)c(F)c1)c1nc(N2CCC23CCC3)oc1CC(F)(F)F [Example 170, N-(4-(cis-bicyclo[3.1.0]hexan-3-yloxy)-3,5-difluorophenyl)-2-(1-azaspiro[3.3]heptan-1-yl)-5-(2,2,2-trifluoroethyl)oxazole-4-carboxamide] | 10 to 1000
17 | 10 to 1000 | O=C(Nc1ccc(O[C@@H]2C[C@@H]3C[C@@H]3C2)c(F)c1)c1nc(N2CC3(CCOCC3)C2)oc1CC(F)(F)F [Example 171, N-(4-(cis-bicyclo[3.1.0]hexan-3-yloxy)-3-fluorophenyl)-2-(7-oxa-2-azaspiro[3.5]nonan-2-yl)-5-(2,2,2-trifluoroethyl)oxazole-4-carboxamide] | 10 to 1000
18 | 10 to 1000 | CC1(C)CCCN1c1nc(C(=O)Nc2cc(F)c(O[C@@H]3C[C@@H]4C[C@@H]4C3)c(F)c2)c(CC(F)(F)F)o1 [Example 172, N-(4-(cis-bicyclo[3.1.0]hexan-3-yloxy)-3,5-difluorophenyl)-2-(2,2-dimethylpyrrolidin-1-yl)-5-(2,2,2-trifluoroethyl)oxazole-4-carboxamide] | 10 to 1000
19 | 10 to 1000 | O=C(Nc1cc(F)c(O[C@@H]2C[C@@H]3C[C@@H]3C2)c(F)c1)c1nc(N2CC3(CCCO3)C2)oc1CC(F)(F)F [Example 173, N-(4-(cis-bicyclo[3.1.0]hexan-3-yloxy)-3,5-difluorophenyl)-2-(5-oxa-2-azaspiro[3.4]octan-2-yl)-5-(2,2,2-trifluoroethyl)oxazole-4-carboxamide] | 10 to 1000
20 | 10 to 1000 | O=C(Nc1cc(F)c(O[C@@H]2C[C@@H]3C[C@@H]3C2)c(F)c1)c1nc(N2CCCCCC2)oc1CC(F)(F)F [Example 174, 2-(azepan-1-yl)-N-(4-(cis-bicyclo[3.1.0]hexan-3-yloxy)-3,5-difluorophenyl)-5-(2,2,2-trifluoroethyl)oxazole-4-carboxamide] | 10 to 1000
21 | 10 to 1000 | O=C(Nc1cc(F)c(OC2CC3C[C@@H]3C2)c(F)c1)c1nc(N2CC3CCC3C2)oc1CC(F)(F)F (stereo partly drawn) [Example 177, N-(4-(cis-bicyclo[3.1.0]hexan-3-yloxy)-3,5-difluorophenyl)-2-(3-azabicyclo[3.2.0]heptan-3-yl)-5-(2,2,2-trifluoroethyl)oxazole-4-carboxamide] | 10 to 1000
22 | 10 to 1000 | COC1(C)CN(c2nc(C(=O)Nc3cc(F)c(O[C@@H]4C[C@@H]5C[C@@H]5C4)c(F)c3)c(CC(F)(F)F)o2)C1 [Example 178, N-(4-(cis-bicyclo[3.1.0]hexan-3-yloxy)-3,5-difluorophenyl)-2-(3-methoxy-3-methylazetidin-1-yl)-5-(2,2,2-trifluoroethyl)oxazole-4-carboxamide] | 10 to 1000
23 | 10 to 1000 | O=C(Nc1cc(F)c(OC2CC3C[C@H]3C2)c(F)c1)c1nc(N2C[C@H]3CCO[C@H]3C2)oc1CC(F)(F)F (stereo partly drawn) [Example 179, N-(4-(cis-bicyclo[3.1.0]hexan-3-yloxy)-3,5-difluorophenyl)-2-((3aR,6aR)-hexahydro-5H-furo[2,3-c]pyrrol-5-yl)-5-(2,2,2-trifluoroethyl)oxazole-4-carboxamide] | 10 to 1000
24 | 10 to 1000 | O=C(Nc1cc(F)c(OC2CC3C[C@H]3C2)c(F)c1)c1nc(N2C[C@@H]3CCO[C@@H]3C2)oc1CC(F)(F)F (stereo partly drawn) [Example 180, N-(4-(cis-bicyclo[3.1.0]hexan-3-yloxy)-3,5-difluorophenyl)-2-((3aS,6aS)-hexahydro-5H-furo[2,3-c]pyrrol-5-yl)-5-(2,2,2-trifluoroethyl)oxazole-4-carboxamide] | 10 to 1000
